Test results reported in patent US9468641B2, “Anti-inflammatory pharmaceutical composition comprising benzopyranyl tetracycles” (SEOUL NATIONAL UNIVERSITY R&DB FOUNDATION, priority 2014, dated 2016).

Experiments:
[1] = test system: HAPI cells, Primary neuroblastoma, and RAW 264.7 cells; test: Griess assay of nitrite release in further cell lines; type: cell-based; settings: LPS stimulation, FIG. 2
Protocol: Cells increase the secretion of nitrite when induced to be inflammatory, but decrease the secretion of nitrite in the presence of an anti-inflammatory agent. […] Cells were treated with the compounds in the absence or presence of 100 ng/mL LPS (lipopolysaccharide). After 24 hrs of incubation, the cell culture media were reacted with Griess reagent (0.1% naphthylethylenediamine dihydrochloride and 1% sulfanilamide in 2% phosphoric acid). Absorbance was measured at 550 nm using a microplate reader, and the level of nitrite was estimated by comparison with a sodium nitrite standard curve.

HMGB2 = target: T1, HMGB2 (Mus musculus, UniProt P30681); test: Pull-down assay with immunoblotting for HMGB2; type: binding; settings: ICM 20 μM as soluble competitor, ICM-BP 5 μM, FIG. 12
T1 construct: endogenous in cells
T1 sequence (P30681 1-210): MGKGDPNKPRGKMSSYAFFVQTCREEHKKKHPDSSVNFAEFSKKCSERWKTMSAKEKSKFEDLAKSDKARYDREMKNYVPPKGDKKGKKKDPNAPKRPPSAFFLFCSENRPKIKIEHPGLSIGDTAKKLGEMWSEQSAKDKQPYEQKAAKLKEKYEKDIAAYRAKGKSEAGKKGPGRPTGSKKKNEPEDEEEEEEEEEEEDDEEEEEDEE
Protocol: Cells were treated with the compounds (ICM-BP alone or ICM-BP/ICM in combination) for 30 min and then with LPS for 2 hrs. Afterwards, the cells were irradiated with 365-nm UV light for 30 min, washed with PBS and stored at −78° C. They were lysed in RIPA buffer containing a protease inhibitor cocktail, and the protein concentration was adjusted to approximately 1 mg/ml. The proteome was labeled with Cy5-azide (40 μM), TBTA (100 μM), CuSO4 (1 mM), TCEP (1 mM) and t-BuOH (5%) for 1 hrs. The mixture was treated with acetone at −20° C. for […] to precipitate proteins. After centrifugation at 4° C. and 14,000 rpm for […], the pellet was washed twice with cold acetone. For 1-D gel analysis, the pellet was dissolved in Laemmli sample buffer and analyzed by electrophoresis. For 2-D gel analysis, the pellet was dissolved in rehydration buffer. The proteome labeled with ICM-BP (test group) and the control (labeled with ICM-BP/ICM) were mixed (1:1 ratio). The mixed proteomes were analyzed by 2-D gel electrophoresis. In-gel fluorescence was scanned with a Typhoon Trio (GE Healthcare).
Cell lysates were prepared according to the same protocol used for the in-gel analysis (lyzed in RIPA buffer containing a protease inhibitor cocktail). […] Samples were boiled with Laemmli sample buffer, and analyzed by electrophoresis and immunoblotting for HMGB2.

[2] = test system: proinflammatory cytokine TNFα; test: TNF-α ELISA of LPS-induced secretion; type: cell-based; settings: FIG. 4
Protocol: TNF-α secretion was measured using a TNF-α ELISA kit. Cells were treated with LPS in the absence or presence of ICM. After 24 hrs of incubation, the levels of TNF-α in the culture medium were measured with rat monoclonal anti-mouse TNF-α antibody as a capture antibody, and goat biotinylated polyclonal anti-mouse TNF-α antibody as a detection antibody. The biotinylated anti-TNF-α antibody was detected by sequential incubation with streptavidin-horseradish peroxidase conjugate. After incubation with a TMB substrate for 20 min, the color development was stopped by adding 2 N H2SO4. The absorbance was then read (450 nm and 540 nm) using a microplate reader.

HMGB2 and HMGB1 = test: Immunoprecipitation analysis of post-translational modification; type: cell-based; settings: western blotting, FIG. 18
Protocol: After exposure to ICM in the presence of LPS for 18 hrs, cells were lysed in subcellular fraction buffer (250 mM sucrose, 20 mM HEPES, 10 mM KCl, 1 mM EDTA, 1 mM EGTA, 1 mM DTT, and protease inhibitor cocktail), passed through a 25-Ga needle several times, and incubated on ice for 20 min. After centrifugation at 3,000 rpm for 5 min, the pellet and the supernatant were separated. The nuclear pellet was washed and then resuspended in standard lysis buffer with 10% glycerol and 0.1% SDS. The cytosolic fraction was obtained by centrifugation of the separated supernatant at 8,000 rpm for 15 min. The conditioned medium was collected for the analysis of the extracellular level of HMGBs and concentrated with Amicon Ultra 10K filters. The samples were analyzed by electrophoresis and western blotting.
For the analysis of post-translational modification levels on HMGB, immunoprecipitation was performed. […] The concentration of protein was measured by BCA assay, and the lysates were incubated overnight with an anti-phosphoserine antibody or an anti-acetylated lysine antibody at 4° C., followed by precipitation with a protein G immunoprecipitation kit (Sigma). Each of the samples was analyzed for HMGB2 level by western blot assays.

NF-κB signaling (p65) = test: Immunofluorescence staining of nuclear translocation of p65; type: cell-based; settings: LPS stimulation, FIG. 5
Protocol: Cells were pretreated with ICM and LPS for 1 hr and then fixed with 4% paraformaldehyde for 30 min at 20° C. and with cold methanol for 10 min at −20° C. After permeabilization with 0.3% Triton X-100 and PBS for 10 min, the fixed cells were blocked with 1% normal horse serum for 1 hr and incubated with mouse anti-p65 antibody at 4° C. for 12˜16 hrs. After washing with PBS containing 0.05% Tween-20 (PBST), Alexa Fluor-488-labeled goat anti-mouse IgG antibody was added to the sample, incubated for 1 hr at room temperature and washed with PBST. Nuclei were visualized by DAPI staining. Samples were analyzed by fluorescence microscopy.

With CC1(C)Oc2cc(O)ccc2C2C1=CCn1c(=O)n(-c3ccccc3)c(=O)n12 (centres unmarked) [ICM] the nitrite release [1] was “inhibit nitrite release in a broad range of cell lines”, the “competition of ICM-BP binding to HMGB2” value (HMGB2) was “markedly lowered the level of binding for HMGB2” and the “LPS-induced secretion of TNFα” value [2] was “suppressed LPS-induced secretion of the proinflammatory cytokine”. The “LPS-induced phosphorylation and acetylation of HMGB2 and HMGB1” value (HMGB2 and HMGB1) was “the post-translational modification was suppressed by ICM” and the “nuclear translocation of p65” value (NF-κB signaling (p65)) was “suppressed NF-κB signaling”.
